In patent US5424286A (priority 1993, dated 1995):

Experiments:
insulin secretion = assay: Alternating bolus injections of GLP-1 and exendin-4 via left atrial catheter in anesthetized dogs; conditions: after normalization of hyperglycemia and in euglycemic state
Procedure: GLP-1(7-36) amide was given at time 0 (0.1 nmol) and at 40 min (1 nmol).

[1] = cited from earlier work

CC[C@H](C)[C@H](NC(=O)[C@H](Cc1ccccc1)NC(=O)[C@H](CCC(=O)O)NC(=O)[C@H](CCCCN)NC(=O)[C@H](C)NC(=O)[C@H](C)NC(=O)[C@H](CCC(N)=O)NC(=O)CNC(=O)[C@H](CCC(=O)O)NC(=O)[C@H](CC(C)C)NC(=O)[C@H](Cc1ccc(O)cc1)NC(=O)[C@H](CO)NC(=O)[C@H](CO)NC(=O)[C@@H](NC(=O)[C@H](CC(=O)O)NC(=O)[C@H](CO)NC(=O)[C@@H](NC(=O)[C@H](Cc1ccccc1)NC(=O)[C@@H](NC(=O)CNC(=O)[C@H](CCC(=O)O)NC(=O)[C@H](C)NC(=O)[C@@H](N)Cc1c[nH]cn1)[C@@H](C)O)[C@@H](C)O)C(C)C)C(=O)N[C@@H](C)C(=O)N[C@@H](Cc1c[nH]c2ccccc12)C(=O)N[C@@H](CC(C)C)C(=O)N[C@H](C(=O)N[C@@H](CCCCN)C(=O)NCC(=O)N[C@@H](CCCNC(=N)N)C(N)=O)C(C)C [GLP-1, glucagon-like peptide-1]
hypoglycemia (insulin secretion): hypoglycemia does not occur

glucagon-like insulinotropic peptide [GLIP]
meal-related increases in blood glucose concentration and plasma insulin and glucagon ([1]; normal subjects, infusion): significantly lowered
lowering of the insulin required ([1]; patients with IDDM): one half
reduction of the requirement for insulin ([1]; patients with NIDDM): 8 fold
